Data published in publication PMC9523446 (Frontiers in Pharmacology, 2022).
Values joined by “and” are separate entries in the source; they are usually repeats but may differ in a detail not shown here. Equal entries are not always repeated. “Also recorded” adds a separate entry of the source. Structures can show the parent of a compound that is named as a salt. Where two headings read alike, the source gives them in different places. Starred links: 1 amine or outer side, 2 acyl side, 3 side chain; linkers in the order of their positions; H or OH if unused. Positions of bridges follow the written chain, without caps; N, C: chain ends. Non-standard residues stand in square brackets, D forms with d. Residues, ends and D or L forms follow the SMILES beside them. Chains are numbered I, II in the order given. Actinocin(9to1) = Cc1c2oc3c(C)ccc(C(=O)[*:1])c3nc-2c(C(=O)[*:2])c(N)c1=O; NMeV = CN[C@H](C(=O)O)C(C)C; Sar = CNCC(=O)O

What was measured:
human α9α10 nAChRs [1] = target: T1, human α9α10 nAChRs (Homo sapiens, UniProt Q9GZZ6+Q9UGM1); test: Desensitization to 15 s pulse of ACh in calcium or barium saline; type: cell-based; details: for peak current amplitude in response to ACh: 15 s pulse of EC50 ACh, oocytes incubated in saline only
T1 construct: expressed in transfected cells; host or cells: Xenopus laevis oocytes co-injected with α9 and α10 cRNAs (1:1)
Source text: (§1) Similar to the results presented in Figure 2, peak ACh-evoked currents from α10 nAChRs were reduced in the presence of barium compared to calcium (Figures 10A,B). […] By contrast with α10 nAChRs, α9α10 currents were much smaller in the presence of barium compared to calcium (Figures 10C,D). Furthermore, α9α10 nAChRs desensitized more slowly than α10 nAChRs.

human α10 nAChRs [2] = target: T2, human α10 nAChRs (Homo sapiens, UniProt Q9GZZ6); test: Agonist activation of α10 nAChRs, concentration-response in oocytes; design: Emax: dose or concentration left out as unconfirmed
Description: For the assessment of ligand activity, the oocyte membranes were clamped at a holding potential of −70 mV and continuously perfused with saline (control solution). […] Ligands were applied in this manner for concentrations up to 1 µM.

human α10 nAChRs [3] = target: T2, human α10 nAChRs; test: Desensitization to 15 s pulse of ACh in calcium or barium saline; type: cell-based; design: expressed in transfected cells; details: for peak current amplitude in response to ACh: 15 s pulse of EC50 ACh, oocytes incubated in STR (20 μM)
Source text: as §1

human α10 nAChRs [4] = target: T2, human α10 nAChRs; type: cell-based; design: expressed in transfected cells
human α10 nAChRs [5] = target: T2, human α10 nAChRs; details: ACh 1 mM
Description: For the assessment of ligand activity, the oocyte membranes were clamped at a holding potential of −70 mV and continuously perfused with saline (control solution). […] Ligands were applied in this manner for concentrations up to 1 µM. […] For experiments examining the desensitization kinetics of α10-containing nAChRs, sibling oocytes were injected with 25 ng of cRNA for α10 subunits or cRNA for α9 and α10 subunits (25 ng each). Actinomycin-D (1 µM) was also used in some experiments to prevent RNA transcription and inhibit the expression of endogenous chloride channels. The oocytes were incubated in actinomycin-D for 36 h prior to assessment with TEVC electrophysiology.

human α10 nAChRs [6] = target: T2, human α10 nAChRs; test: Decay of ACh-evoked currents of ligand-incubated oocytes during saline perfusion (one-phase exponential plateau); details: oocytes treated 3 days with 20 μM ligand; ACh 1 mM; calculated plateau, 95% CI in parentheses
human α10 nAChRs [7] = target: T2, human α10 nAChRs; test: cell-based; type: cell-based; design: expressed in transfected cells; details: for ACh response in presence of ligand, of control values: oocytes incubated with BRU (20 μM)
human α9 nAChRs = human α9 nAChRs (Homo sapiens, UniProt Q9UGM1)
[8] = system: X. laevis oocytes injected with water
human α9α10 nAChRs [9] = target: T1, human α9α10 nAChRs; test: cell-based
[10] = oocytes treated 3 days with 20 μM ligand, ACh 1 mM
[11] = read-out: inhibition of ACh-evoked responses

T2 sequence (Q9GZZ6 25-450): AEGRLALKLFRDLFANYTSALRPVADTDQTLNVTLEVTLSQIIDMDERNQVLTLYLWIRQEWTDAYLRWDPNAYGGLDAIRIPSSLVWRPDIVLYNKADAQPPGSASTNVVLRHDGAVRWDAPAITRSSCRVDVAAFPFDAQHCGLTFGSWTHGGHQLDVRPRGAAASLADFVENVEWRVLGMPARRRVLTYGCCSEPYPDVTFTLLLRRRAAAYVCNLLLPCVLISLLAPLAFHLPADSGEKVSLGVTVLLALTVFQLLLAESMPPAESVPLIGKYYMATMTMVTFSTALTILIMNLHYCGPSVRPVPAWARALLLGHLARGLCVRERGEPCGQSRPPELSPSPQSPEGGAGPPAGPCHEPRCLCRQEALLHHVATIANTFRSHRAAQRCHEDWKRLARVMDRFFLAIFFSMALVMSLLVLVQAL
T1 sequence (Q9UGM1 26-479 limits assumed): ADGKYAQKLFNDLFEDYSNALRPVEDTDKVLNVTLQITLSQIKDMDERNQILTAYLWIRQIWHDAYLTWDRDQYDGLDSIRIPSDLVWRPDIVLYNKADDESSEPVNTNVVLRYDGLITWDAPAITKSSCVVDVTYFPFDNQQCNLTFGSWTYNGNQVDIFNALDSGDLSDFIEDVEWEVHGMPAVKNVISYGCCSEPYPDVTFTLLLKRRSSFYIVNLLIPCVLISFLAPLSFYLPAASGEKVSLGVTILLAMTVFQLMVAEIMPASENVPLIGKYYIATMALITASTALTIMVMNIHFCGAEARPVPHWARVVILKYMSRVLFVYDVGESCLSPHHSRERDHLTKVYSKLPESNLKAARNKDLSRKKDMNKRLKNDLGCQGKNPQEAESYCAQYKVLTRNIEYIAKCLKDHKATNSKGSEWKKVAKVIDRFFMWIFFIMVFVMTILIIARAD
T1 sequence (Q9GZZ6 25-450): as the sequence (Q9GZZ6 25-450) above
Chain of human α9 nAChRs (Q9UGM1 26-479 limits assumed): as the sequence (Q9UGM1 26-479 limits assumed) above

For CC(=O)OCC[N+](C)(C)C [ACh, acetylcholine], the “peak current amplitude in response to ACh” value (shortened to “peak current amplitude”) (human α9α10 nAChRs [1]; barium) was −31 ± 40 nA, the “peak current amplitude” value (human α9α10 nAChRs [1]; calcium) was −484 ± 270 nA and the “current at the end of the 15 s pulse of ACh” value (human α9α10 nAChRs [1]; barium) was −23 ± 30 nA. For the same molecule, the “current at the end of the 15 s pulse of ACh, of peak amplitude” value (from here on “current at the end … of peak amplitude”) (human α9α10 nAChRs [1]; barium) was 73 ± 8%, the “current at the end of the 15 s pulse of ACh” value (human α9α10 nAChRs [1]; calcium) was −154 ± 74 nA and the “current at the end … of peak amplitude” value (human α9α10 nAChRs [1]; calcium) was 33 ± 4%. For the same molecule, the “Hill Slope of activation curve” value (human α10 nAChRs [2]; oocytes incubated in STR (20 μM), 95% CI in parentheses) was 1.1 (0.9–1.3), the “peak current amplitude” value (human α10 nAChRs [3]; barium) was −1,430 ± 1,424 nA and the “peak current amplitude” value (human α10 nAChRs [3]; calcium) was −1,818 ± 1,329 nA. The “current at the end of the 15 s pulse of ACh” value (human α10 nAChRs [3]; barium) was −459 ± 375 nA, the “current at the end … of peak amplitude” value (human α10 nAChRs [3]; barium) was 35 ± 11% and the “current at the end of the 15 s pulse of ACh” value (human α10 nAChRs [3]; calcium) was −553 ± 396 nA. The “current at the end … of peak amplitude” value (human α10 nAChRs [3]; calcium) was 31 ± 6% and the ACh-evoked current amplitude (human α10 nAChRs [4]; oocytes treated 3 days with 5 mM ligand, ACh 1 mM, ± SD) was −17 ± 11 nA.

With Cc1c2oc3c(C)ccc(C(=O)N[C@@H]4C(=O)N[C@H](C(C)C)C(=O)N5CCC[C@H]5C(=O)N(C)CC(=O)N(C)[C@@H](C(C)C)C(=O)O[C@@H]4C)c3nc-2c(C(=O)N[C@@H]2C(=O)N[C@H](C(C)C)C(=O)N3CCC[C@H]3C(=O)N(C)CC(=O)N(C)[C@@H](C(C)C)C(=O)O[C@@H]2C)c(N)c1=O [Actino-D, actinomycin-D] (I: T[dV]P[Sar][NMeV] / II: T[dV]P[Sar][NMeV]; ester I:1-I:C, II:1-II:C; linker I:N-II:N via Actinocin(9to1)) the ACh-evoked response amplitude (human α10 nAChRs [5]; sibling oocytes incubated with 1 µM actinomycin-D (and STR 20 μM), barium) was −164 ± 96 nA and the ACh-evoked response amplitude (human α10 nAChRs [5]; sibling oocytes incubated with 1 µM actinomycin-D (and STR 20 μM), calcium ([…])) was −186 ± 96 nA.

In the case of COc1cc2c(cc1OC)[C@@]13CCN4CC5=CCO[C@H]6CC(=O)N2[C@H]1[C@H]6[C@H]5C[C@H]43 [BRU, dimethoxystrychnine sulfate hydrate], the “plateau to which ACh-evoked currents decay, of initial current amplitudes” value (human α10 nAChRs [6]) is reported as 15% and 15 (13–17) %, the “ACh response in presence of ligand, of control values” (from here on “ACh response in presence of ligand”) (human α10 nAChRs [7]; ligand 100 nM perfused) is reported as 87 ± 16% and the “ACh response in presence of ligand” value (human α10 nAChRs [7]; ligand 1 μM (2nd of series 100 nM through 300 μM)) is reported as 246 ± 74%. For the same molecule, the “ACh response in presence of ligand” value (human α10 nAChRs [7]; ligand 10 μM (3rd of series 100 nM through 300 μM)) was 371 ± 101%, the “ACh response in presence of ligand” value (human α10 nAChRs [7]; ligand 100 μM (4th of series 100 nM through 300 μM)) was 260 ± 102% and the “ACh response in presence of ligand” value (human α10 nAChRs [7]; ligand 300 μM perfused) was 168 ± 73%. The “range of ACh-evoked current amplitudes” value (human α10 nAChRs [4]; [10]) was −50 to −888 nA and the ACh-evoked current amplitude (human α10 nAChRs [4]; oocytes treated 3 days with 20 μM ligand, ACh 1 mM, ± SD) was −302 ± 225 nA.

O=C1C[C@@H]2OCC=C3CN4CC[C@]56c7ccccc7N1[C@H]5[C@H]2[C@H]3C[C@H]46 [STR, strychnine] was tested, and the “plateau to which ACh-evoked currents decay, of initial current amplitudes” value (human α10 nAChRs [6]) was 74% and 74 (72–76) %, the ACh-evoked response amplitude (human α10 nAChRs [5]; oocytes treated 36 h with STR (20 μM), calcium replaced with equimolar barium) was −301 ± 225 nA and the ACh-evoked response amplitude (human α10 nAChRs [5]; oocytes treated 36 h with STR (20 μM), saline with calcium ([…])) was −373 ± 273 nA. For the same molecule, the “ACh-evoked current amplitude after exposure to STR” value (human α9 nAChRs; subset of choline-incubated oocytes then incubated in STR (20 μM) for 24 h, ACh 100 μM) was −2.1 ± 1.2 nA, the ACh-evoked current amplitude [8] was −1.6 ± 0.7 nA and the “ACh-evoked currents after acute application, of control values” (human α10 nAChRs [7]) was 52 ± 13%. The IC50 (human α10 nAChRs [7]) was 20.2 µM, the “enhancement of ACh-evoked current amplitudes” value (human α10 nAChRs [7]) was 518 ± 411% and the “response to ACh after perfusion with ligand” value (human α10 nAChRs [7]) was −294 ± 149 nA. The inhibition at 20 µM (human α10 nAChRs [7]; [11]) was roughly 50%, the “ACh-evoked currents after acute application, of control values” (human α9α10 nAChRs [9]) was 1.0 ± 0.5% and the inhibition at 20 µM (human α9α10 nAChRs [9]; [11]) was roughly 99%. For the same molecule, the “range of ACh-evoked current amplitudes” value (human α10 nAChRs [4]; [10]) was −76 to −2,378 nA.

C[N+](C)(C)CCO [choline] was tested, and the “ACh-evoked current amplitude before exposure to STR” value (human α9 nAChRs) was −78 ± 44 nA and the Emax (human α10 nAChRs [2]; read-out: maximal response, of the calculated maximal response to ACh) was 4 ± 2%.

CN1CCC[C@H]1c1cccnc1 [nicotine, (-)-nicotine hydrogen tartrate] was tested, and the agonist-evoked currents (human α10 nAChRs [2]; concentrations up to 1 mM, oocytes incubated in STR (20 μM)) was “failed to evoke current responses; also recorded: failed to induce detectable currents”, the “ACh responses in the presence of ligand” value (human α10 nAChRs [7]) was 99 ± 8% and the ACh-evoked current amplitude (human α10 nAChRs [4]) was −6.0 ± 6.2 nA.
